According to article PMC5159881 (Nature Communications, 2016):
Where two headings read alike, the source gives them in different places.

Columns and labels:
AR-FL = AR-FL (Homo sapiens, UniProt P10275); assay: MMTV-luc dual luciferase reporter assay, DHT-induced AR activity in 22RV1 cells; type: cell-based; details: 22RV1, DHT +, compound 10 µM, 12 h, mean ± s.d., n=3
Method: (§1) Renilla and firefly activities were then determined by luminometry using the Dual-Luciferase Reporter Assay System (Promega) and the ratio calculated. Results were expressed as the ratio of firefly to Renilla luciferase activity.
After transient transfection of MMTV-luc and Renilla-luc in 22RV1, the MMTV-luc
activities were stimulated by androgen DHT. Then cells were treated with indicated
expressed as the ratio of luciferase activity. Values are presented as mean ± s.d., n =

AR1-651 = target: T1, AR1-651 (Homo sapiens, UniProt P10275); assay: MMTV-luc dual luciferase reporter assay, AR1-651-induced activity in 22RV1 cells; type: cell-based; details: for MMTV-luc Activity (%), AR1-651-induced: 22RV1, AR1-651 +, 12 h;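 on all read-outs here: luminometric read-out of firefly luciferase signal normalized to Renilla luciferase signal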
T1 construct: FLAG; expressed in transfected cells; host or cells: 22RV1
T1 sequence (P10275 1-651): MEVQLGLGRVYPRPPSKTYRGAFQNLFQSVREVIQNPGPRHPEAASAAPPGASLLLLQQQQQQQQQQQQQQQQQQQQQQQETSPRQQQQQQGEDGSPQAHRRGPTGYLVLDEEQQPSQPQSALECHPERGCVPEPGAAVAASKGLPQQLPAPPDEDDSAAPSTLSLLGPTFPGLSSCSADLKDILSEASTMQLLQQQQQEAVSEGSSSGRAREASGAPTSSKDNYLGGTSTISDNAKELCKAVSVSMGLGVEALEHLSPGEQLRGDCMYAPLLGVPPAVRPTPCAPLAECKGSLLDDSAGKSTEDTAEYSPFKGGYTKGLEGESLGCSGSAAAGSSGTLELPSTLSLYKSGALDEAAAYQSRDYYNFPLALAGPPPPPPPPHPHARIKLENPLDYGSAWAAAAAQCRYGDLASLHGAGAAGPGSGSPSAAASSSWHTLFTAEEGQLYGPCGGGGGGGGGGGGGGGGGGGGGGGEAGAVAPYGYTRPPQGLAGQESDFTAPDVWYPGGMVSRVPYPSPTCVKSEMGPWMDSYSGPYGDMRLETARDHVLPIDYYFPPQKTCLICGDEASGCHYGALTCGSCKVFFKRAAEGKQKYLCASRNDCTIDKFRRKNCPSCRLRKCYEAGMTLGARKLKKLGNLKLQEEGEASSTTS
Method: as §1

[1] = compound 10 µM, mean ± s.d., n=3
[2] = 22Rv1, read-out: MMTV-luc Activity (%), AR1-651-induced, 22RV1, AR1-651 +, compound 1 µM, 12 h
[3] = 22Rv1, read-out: MMTV-luc Activity (%), AR1-651-induced, 22RV1, AR1-651 +, compound 10 µM, 12 h, mean ± s.d., n=3
[4] = 22Rv1, read-out: MMTV-luc Activity (%), AR1-651-induced

Sequence of AR-FL (P10275 whole entry): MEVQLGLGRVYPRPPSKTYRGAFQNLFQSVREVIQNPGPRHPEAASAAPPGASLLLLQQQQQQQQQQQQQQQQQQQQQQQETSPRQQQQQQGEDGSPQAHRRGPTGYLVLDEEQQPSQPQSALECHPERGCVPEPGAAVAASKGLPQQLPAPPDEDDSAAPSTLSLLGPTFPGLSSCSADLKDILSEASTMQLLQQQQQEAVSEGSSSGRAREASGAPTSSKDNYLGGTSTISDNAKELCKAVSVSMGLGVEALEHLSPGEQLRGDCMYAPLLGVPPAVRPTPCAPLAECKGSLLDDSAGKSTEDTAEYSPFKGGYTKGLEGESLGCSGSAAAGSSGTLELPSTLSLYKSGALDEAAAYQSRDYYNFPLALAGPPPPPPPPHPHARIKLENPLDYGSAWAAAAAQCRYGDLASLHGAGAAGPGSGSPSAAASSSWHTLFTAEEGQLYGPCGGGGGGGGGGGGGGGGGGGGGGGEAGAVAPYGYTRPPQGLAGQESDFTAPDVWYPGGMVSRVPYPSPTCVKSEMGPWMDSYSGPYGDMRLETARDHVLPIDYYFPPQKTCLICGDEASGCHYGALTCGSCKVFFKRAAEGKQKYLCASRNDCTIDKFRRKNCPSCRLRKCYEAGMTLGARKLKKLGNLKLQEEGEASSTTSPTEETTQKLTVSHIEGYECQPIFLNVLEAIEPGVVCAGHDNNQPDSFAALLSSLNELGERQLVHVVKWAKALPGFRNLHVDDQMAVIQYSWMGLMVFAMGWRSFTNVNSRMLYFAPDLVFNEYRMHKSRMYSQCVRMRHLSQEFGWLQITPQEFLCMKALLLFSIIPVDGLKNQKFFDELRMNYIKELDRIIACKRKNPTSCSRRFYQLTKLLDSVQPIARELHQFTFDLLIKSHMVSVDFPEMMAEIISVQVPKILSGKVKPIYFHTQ

Compound	MMTV-luc Activity (%), AR1-651-induced (AR1-651; [1])	activity at 10 µM (AR1-651; [3])	further results
O=C1CCC[C@@H]2[C@H]3CCC[N@+]4([O-])CCC[C@@H](CN12)[C@@H]34 [Ammothamnine]	105.7%	–	MMTV-luc Activity (%), DHT-induced (AR-FL): 119.1±20.9%
C=C1CC[C@@H]2[C@](C)(CO)[C@H](O)CC[C@@]2(C)[C@@H]1C/C=C1/C(=O)OC[C@H]1O [Andrographolide]	–	59.5%	activity at 1 µM (AR1-651; [2]): 70%
O=C1C=CC2(CCC23C=CC(=O)O3)O1 (centres unmarked) [Anemonin]	–	112%	–
O=C(O)[C@H]1O[C@@H](Oc2cc3oc(-c4ccccc4)cc(=O)c3c(O)c2O)[C@H](O)[C@@H](O)[C@@H]1O [Baicalin]	–	113%	–
C=C(C)[C@@H]1CC[C@]2(C(=O)O)CC[C@]3(C)[C@H](CC[C@@H]4[C@@]5(C)CC[C@H](O)C(C)(C)[C@@H]5CC[C@]43C)[C@@H]12 [Betulinic acid]	–	65.2%	–
CC(C)(C)[C@]1(O)CC2OC(=O)CC23C(=O)OC2OC(=O)[C@H](O)C231 (some centres unmarked) [Bilobalide]	–	–	activity at 10 µM (AR1-651; [4]): 98.7 ± 1.1%
COc1cc(/C=C/C(=O)CC(=O)/C=C/c2ccc(O)c(OC)c2)ccc1O [Curcumin]	–	178%	–
C=C1C[C@@]2(O)O[C@@]3(C[C@H]2C(C)C)[C@@H](C)CC[C@@H]13 [Curcumol]	43.7%	–	MMTV-luc Activity (%), DHT-induced (AR-FL): 90.0±9.2%; MMTV-luc Activity (%), AR1-651-induced (AR1-651; compound 1 µM): 86.4±7.7%
O=c1c(-c2ccc(O)cc2)coc2cc(O)ccc12 [Daidzein]	–	177%	–
O=C1c2c(O)cc(O)cc2O[C@H](c2cc(O)c(O)c(O)c2)[C@H]1O [Dihydromyricetin]	–	89.8 ± 8%	–
C[C@@H]1CC[C@@]2(OC1)O[C@H]1C[C@H]3[C@@H]4CC=C5C[C@@H](O)CC[C@]5(C)[C@H]4CC[C@]3(C)[C@H]1[C@@H]2C [Diosgenin]	–	148%	–
CC(C)(c1ccc(OCC(O)CO)cc1)c1ccc(OCC(O)CCl)cc1 (stereo not drawn) [EPI-001, reference compound]	–	–	MMTV-luc Activity (%), AR1-651-induced (AR1-651; compound 25 µM): 54.2%
CC(C)[C@@H](C)/C=C/[C@@H](C)[C@H]1CC[C@H]2C3=CC=C4C[C@@H](O)CC[C@]4(C)[C@H]3CC[C@]12C [Ergosterol]	–	96.3 ± 6.1%	–
OCc1ccc(O[C@@H]2O[C@H](CO)[C@@H](O)[C@H](O)[C@H]2O)cc1 [Gastrodin]	–	–	activity at 10 µM (AR1-651; [4]): 70 ± 3.7%
O=c1c(-c2ccc(O)cc2)coc2cc(O)cc(O)c12 [Genistein]	–	157%	–
CC(C)=CCC[C@](C)(O[C@@H]1O[C@H](CO)[C@@H](O)[C@H](O)[C@H]1O)[C@H]1CC[C@]2(C)[C@@H]1[C@H](O)C[C@@H]1[C@@]3(C)CC[C@H](O)C(C)(C)[C@@H]3[C@@H](O[C@@H]3O[C@H](CO)[C@@H](O)[C@H](O)[C@H]3O)C[C@]12C [Ginsenoside Rg1]	–	77.2%	–
COc1ccc([C@@H]2CC(=O)c3c(O)cc(O[C@@H]4O[C@H](CO[C@@H]5O[C@@H](C)[C@H](O)[C@@H](O)[C@H]5O)[C@@H](O)[C@H](O)[C@H]4O)cc3O2)cc1O [Hesperidin]	110.2±13%	–	MMTV-luc Activity (%), DHT-induced (AR-FL): 85.5±23.9%
O=c1c(O[C@@H]2O[C@H](CO)[C@@H](O)[C@H](O)[C@H]2O)c(-c2ccc(O)c(O)c2)oc2cc(O)cc(O)c12 [Isoquercitrin]	–	95.5%	–
COc1cc(-c2oc3cc(O)cc(O)c3c(=O)c2O)ccc1O [Isorhamnetin]	–	–	activity at 10 µM (AR1-651; [4]): 139%
CCNC(=O)CC[C@H](N)C(=O)O [L-Theanine]	–	61.9%	–
O=c1cc(-c2ccc(O)c(O)c2)oc2cc(O)cc(O)c12 [Luteolin]	–	82.7 ± 4.5%	–
O[C@H]1[C@H]2c3cc4c(cc3CN3CCC(=C[C@@H]1O)[C@H]23)OCO4 [Lycorine]	–	–	activity at 10 µM (AR1-651; [4]): 66%
C=CCc1ccc(O)c(-c2cc(CC=C)ccc2O)c1 [Magnolol]	–	–	activity at 1 µM (AR1-651; [4]): 60.6%; activity at 10 µM (AR1-651; [4]): 59.3%

Compound	MMTV-luc Activity (%), AR1-651-induced (AR1-651; [1])	activity at 10 µM (AR1-651; [3])	further results
CC1(C)CC[C@]2(C(=O)O)CC[C@]3(C)C(=CC[C@@H]4[C@@]5(C)CC[C@H](O)C(C)(C)[C@@H]5CC[C@]43C)[C@@H]2C1 [Oleanic acid]	153.4%	–	MMTV-luc Activity (%), DHT-induced (AR-FL): 122.4±7.5%
C[C@@]12C[C@@]3(O)O[C@@H](O1)[C@]1(COC(=O)c4ccccc4)[C@H]3C[C@@]12O[C@@H]1O[C@H](CO)[C@@H](O)[C@H](O)[C@H]1O [Paeoniflorin]	–	88.5%	–
O=C(CCc1ccc(O)cc1)c1c(O)cc(O)cc1O[C@@H]1O[C@H](CO)[C@@H](O)[C@H](O)[C@H]1O [Phlorizin]	–	52.9%	activity at 1 µM (AR1-651; [2]): 126%
CC1=CC(=O)c2c(O)cccc2C1=O [Plumbagin]	–	28.8 ± 7.9%	activity at 1 µM (AR1-651; [2]): 128%
Cc1cc(O)c(C(=O)CCC(C)C)c(=O)o1 [Pogostone]	157.2%	–	MMTV-luc Activity (%), DHT-induced (AR-FL): 92.3±13.3%
O=Cc1ccc(O)c(O)c1 [Protocatechuic aldehyde]	62.5%	–	MMTV-luc Activity (%), DHT-induced (AR-FL): 83.1±0.1%
COc1cc(/C=C/c2ccc(O)cc2)cc(OC)c1 [Pterostilbene]	–	90 ± 5.4%	–
O=c1c(-c2ccc(O)cc2)coc2c([C@@H]3O[C@H](CO)[C@@H](O)[C@H](O)[C@H]3O)c(O)ccc12 [Puerarin]	–	80.1 ± 1.8%	–
O=C(/C=C/c1ccc(O)c(O)c1)O[C@H](Cc1ccc(O)c(O)c1)C(=O)O [Rosmarinic acid]	–	115%	–
C[C@@H]1O[C@@H](OC[C@H]2O[C@@H](Oc3c(-c4ccc(O)c(O)c4)oc4cc(O)cc(O)c4c3=O)[C@H](O)[C@@H](O)[C@@H]2O)[C@H](O)[C@H](O)[C@H]1O [Rutin]	–	91.4%	–
O=C([O-])C(O)Cc1ccc(O)c(O)c1.[Na+] (centres unmarked) [Sodium Danshensu]	73.3%	–	MMTV-luc Activity (%), DHT-induced (AR-FL): 93.0±14.7%
C=C[C@H]1[C@H](O[C@@H]2O[C@H](CO)[C@@H](O)[C@H](O)[C@H]2O)OC=C2C(=O)OCC[C@]21O [Swertiamain]	64.7±7.5%	–	MMTV-luc Activity (%), DHT-induced (AR-FL): 80.9±8.5%
Cc1coc2c1C(=O)C(=O)c1c-2ccc2c1CCCC2(C)C [Tanshinone IIA]	–	105%	–
Cc1coc2c1C(=O)C(=O)c1c-2ccc2c(C)cccc12 [Tanshinone I]	–	99.9 ± 4.1%	–
CN1CCc2cc3c(cc2[C@H]1[C@@H]1OC(=O)c2c1ccc1c2OCO1)OCO3 [d-Bicuculline]	112.1%	–	MMTV-luc Activity (%), DHT-induced (AR-FL): 75.0±11.5%
CC1(C)[C@@H](O)CC[C@]2(C)[C@H]3C(=O)C=C4[C@@H]5C[C@@](C)(C(=O)O)CC[C@]5(C)CC[C@@]4(C)[C@]3(C)CC[C@@H]12 [glycyrrhetic acid]	308.3%	–	MMTV-luc Activity (%), DHT-induced (AR-FL): 101.3±11.9%
O=C(/C=C/c1ccc(O)c2c1[C@H](C(=O)O[C@H](Cc1ccc(O)c(O)c1)C(=O)O)[C@@H](c1ccc(O)c(O)c1)O2)O[C@H](Cc1ccc(O)c(O)c1)C(=O)O [lithospermic acid B]	96.3±4.2%	–	MMTV-luc Activity (%), DHT-induced (AR-FL): 115.9±27.9%
O=C(O)C1=C[C@@H](O)[C@@H](O)[C@H](O)C1 [shikimic acid]	–	104%	–
Asiaticoside	150.9%	–	–
D-Tanshinone I	138.3%	–	–
Myricitrin	102.1%	–	–
astragalosideⅠ	87.0±5.2%	–	MMTV-luc Activity (%), DHT-induced (AR-FL): 117.8±5.2%
